Measured values published in patent US20150346214A1, “DETECTION OF MEMBRANE PROTEINS” (priority 2012, published 2015).
“Also recorded” adds a separate entry of the source.

Target: T1, mechanosensitive channel of large conductance (MscL) (Mycobacterium tuberculosis, UniProt P9WJN5)
T1 sequence (P9WJN5 1-151): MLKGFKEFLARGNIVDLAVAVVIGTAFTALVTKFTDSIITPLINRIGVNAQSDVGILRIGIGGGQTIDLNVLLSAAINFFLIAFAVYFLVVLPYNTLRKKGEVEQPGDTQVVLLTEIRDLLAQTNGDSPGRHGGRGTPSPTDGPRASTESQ
Test: Gas-phase (collision-induced) unfolding IM-MS: stabilisation of MscL by bound phospholipid
Format: binding
Settings: +12 charge state, versus apo form

CCCCCCCC/C=C\CCCCCCCC(=O)OC[C@H](COP(=O)(O)O[C@H]1C(O)C(O)C(O)[C@@H](OP(=O)(O)O)C1O)OC(=O)CCCCCCC/C=C\CCCCCCCC (stereo partly shown) [PI]
average stabilisation of MscL by bound phospholipid (resistance to gas-phase unfolding): large increase in stability when binding multiple lipids, greater than all other phospholipids investigated; also recorded: Major cumulative effects on stability
